In publication PMC8938680 (2022):

System: E. coli thiM TPP riboswitch (ITC construct) (RNA, riboswitch) GGCAGUACUCGGGGUGCCCUUCUGCGUGAAGGCUGAGAAAUACCCGUAUCACCUGAUCUGGAUAAUGCCAGCGUAGGGAAGUGCUG
Assay: ITC
Details: 1 mM MgCl2, 200 mM potassium acetate; 100 mM HEPES-Na pH 8.0, 25 °C

Row | KT | KL | Structure (SMILES)
1 | 11 µM | – | Cc1ncc(C[n+]2csc(CCO)c2C)c(N)n1
2 | – | 19 nM | Cc1ncc(C[n+]2csc(CCOP(=O)(O)CP(=O)(O)O)c2C)c(N)n1
